Measured values taken from patent US20260315604A1, “OTUB1 Small-Molecule Binders and OTUB1-recruiting Deubiquitinase-targeting Chimeras (DUBTACs)” (ICAHN SCHOOL OF MEDICINE AT MOUNT SINAI, priority 2023, published 2026).

Molecular target: T1, Human OTUB1 wild-type (Homo sapiens, UniProt Q96FW1)
T1 construct: His tag (N); made in house; host or cells: E. coli BL21-CodonPlus (DE3)-RIPIL
Assay: Covalent modification of OTUB1 (adduct formation), mass spectrometry-based assay (OTUB1 covalent binders; selected CFTR or cGAS based bivalent compounds)
Type: binding
Conditions: covalent adduct formation with OTUB1 protein
Experimental: OTUB1 covalent binders were tested for their ability to form the covalent adduct with OTUB1 protein using a mass-spectrometry based assay.
Example 389. Assessment of the Covalent Modification of OTUB1 Protein by Selected OTUB1 Covalent Binders Using a Mass Spectrometry-Based Assay (FIG. 1)
OTUB1 protein (10 μM) was incubated with selecting compounds (2500 μM) at RT for 1 h. The adduct was qualified by mass spectrometry-based assays.
Example 398. Assessment of the Covalent Modification of OTUB1 Protein by Selected CFTR Based Bivalent Compounds Using Mass Spectrometry-Based Assay (FIG. 10)
OTUB1 protein (10 μM) was incubated with selecting bivalent compounds (2500 μM) at RT for 1 h. The adduct was qualified by mass spectrometry-based assays.
Human OTUB1 wild-type (NM_017670.3) and C23S mutation genes were optimized based on the codon preference of E. coli, synthesized and cloned into pET15b vector with a N-terminal His tag by Genscript, respectively. The plasmid was transferred to BL21-CodonPlus (DE3)-RIPIL Competent Cell (230280, Agilent Technologies) and the recombinant protein was induced expressed by 0.5 mM IPTG at 16° C. with shaking 200 rpm for 18 h. Induced cells were harvested by centrifugation and resuspended in cold lysis buffer (50 mM Tris-H—Cl pH 7.5, 150 mM NaCl, 25 mM imidazole pH 7.5, 0.01% IGEPAL, 5% Glycerol) in the presence of Pierce Protease Inhibitor tablets (PIA32963, Fisher Scientific) and 2 mM TCEP pH 7.5.
The cells were lysed by sonication, clarified by centrifugation, and the filtered supernatant loaded onto a 5 ml HisTrap HP affinity column (17524802, Cytiva) in AKTA system. The His-recombinant protein bound to column was washed using buffer A (50 mM Tris-HCl pH 7.5, 150 mM NaCl, 25 mM imidazole pH 7.5, 0.01% IGEPAL, 5% Glycerol) and eluted with buffer B (50 mM Tris-HCl pH 7.5, 150 mM NaCl, 250 mM imidazole pH 7.5, 0.01% IGEPAL, 5% Glycerol). The eluted fractions containing OTUB1 protein were concentrated and subjected to size exclusion chromatography using a 320 mL HiLoad 26/600 Superdex 200 pg column (28989336, Cytiva) under the buffer condition ([…] Tris-HCl pH 7.5, 150 mM NaCl, and 2 mM TCEP pH 7.5). The eluted fractions containing OTUB1 protein were concentrated, divided into aliquots and stored at −80° C. freezer for further usage.
Quality control of the OTUB1 proteins was performed by SDS-PAGE, Nanodrop and mass spectrometry.
Mass Spectrometry-Based Analysis of OTUB1-Covalent Ligand Adducts
To screen the covalent ligands, recombinant OTUB1 protein (10 μM) was respectively incubated with DMSO, EN523 or seven novel ligands (2500 μM) in reaction buffer (50 mM Tris-HCl pH 7.5, 150 mM NaCl, and 0.5 mM TCEP pH 7.5) for 1 h at room temperature.
Then, the total 500 μL reaction solution was exchanged and concentrated to 50 μL 50 mM ammonium bicarbonate with a 10 kDa MWCO centrifugal filter unit (UFC901024, Millipore) and diluted in MS buffer (30% ACN, 0.2% FA) to a final concentration of […]. Mass spectrometry detection was performed by an Agilent LC/MSD Time-Of-Flight (TOF) mass spectrometer (Agilent Technologies) equipped with an electrospray ion source. The data was analyzed by TOF Protein Confirmation Software. All experiments were performed in duplicate.

T1 sequence (Q96FW1 whole entry): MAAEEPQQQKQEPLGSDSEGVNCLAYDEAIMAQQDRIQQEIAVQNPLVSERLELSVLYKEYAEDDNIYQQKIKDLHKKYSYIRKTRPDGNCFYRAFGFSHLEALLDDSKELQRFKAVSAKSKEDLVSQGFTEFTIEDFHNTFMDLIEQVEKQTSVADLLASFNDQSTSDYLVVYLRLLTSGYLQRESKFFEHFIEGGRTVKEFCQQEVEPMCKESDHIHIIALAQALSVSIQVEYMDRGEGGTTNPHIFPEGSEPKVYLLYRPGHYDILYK

C=C(C#N)CN1CCN(c2ccc(C)s2)C(=O)C1 [XS185-87, 2-((4-(5-methylthiophen-2-yl)-3-oxopiperazin-1-yl)methyl)acrylonitrile]
% of OTUB1 modified: 1%

CN(C)C/C=C/C(=O)N1CC(C(=O)Nc2cc3ccccc3s2)C1 [XS185-90, (E)-N-(benzo[b]thiophen-2-yl)-1-(4-(dimethylamino)but-2-enoyl)azetidine-3-carboxamide]
% of OTUB1 modified: 60%

CN(C)C/C=C/C(=O)N1CC2(CC(C(=O)Nc3cc4ccccc4s3)C2)C1 [XS185-91, (E)-N-(benzo[b]thiophen-2-yl)-2-(4-(dimethylamino)but-2-enoyl)-2-azaspiro[3.3]heptane-6-carboxamide]
% of OTUB1 modified: 25%

Cc1ccc(C(=O)N2CCC3(CC2)CN(C(=O)/C=C/CN(C)C)C3)s1 [XS185-96, (E)-4-(dimethylamino)-1-(7-(5-methylthiophene-2-carbonyl)-2,7-diazaspiro[3.5]nonan-2-yl)but-2-en-1-one]
% of OTUB1 modified: 10%

Cc1ccc(C(=O)N2CCC3(CN(C(=O)/C=C/CN(C)C)C3)C2)s1 [XS185-97, (E)-4-(dimethylamino)-1-(6-(5-methylthiophene-2-carbonyl)-2,6-diazaspiro[3.4]octan-2-yl)but-2-en-1-one]
% of OTUB1 modified: 25%

Cc1ccc(N2CCC3(CC2)CN(C(=O)/C=C/CN(C)C)C3)s1 [XS185-101, (E)-4-(dimethylamino)-1-(7-(5-methylthiophen-2-yl)-2,7-diazaspiro[3.5]nonan-2-yl)but-2-en-1-one]
% of OTUB1 modified: 23%

Cc1ccc(N2CC3(CCN(C(=O)/C=C/CN(C)C)CC3)C2)s1 [XS185-109, (E)-4-(dimethylamino)-1-(2-(5-methylthiophen-2-yl)-2,7-diazaspiro[3.5]nonan-7-yl)but-2-en-1-one]
% of OTUB1 modified: 1%

CN(C)C/C=C/C(=O)N1CC2(CC(C(=O)Nc3cc4c(s3)CCCC4)C2)C1 [XS185-114, (E)-2-(4-(dimethylamino)but-2-enoyl)-N-(4,5,6,7-tetrahydrobenzo[b]thiophen-2-yl)-2-azaspiro[3.3]heptane-6-carboxamide]
% of OTUB1 modified: 18%

CN(C)C/C=C/C(=O)N1CCN(c2cc3ccccc3[nH]2)C(=O)C1 [XS185-116, (E)-4-(4-(dimethylamino)but-2-enoyl)-1-(1H-indol-2-yl)piperazin-2-one]
% of OTUB1 modified: 55%

CN(C)C/C=C/C(=O)N1CC(C(=O)NC2CCCC2)C1 [XS185-131, (E)-N-cyclopentyl-1-(4-(dimethylamino)but-2-enoyl)azetidine-3-carboxamide]
% of OTUB1 modified: 18%

CN(C)C/C=C/C(=O)N1CC2(CCN(c3cc4ccccc4s3)CC2)C1 [XS185-147, (E)-1-(7-(benzo[b]thiophen-2-yl)-2,7-diazaspiro[3.5]nonan-2-yl)-4-(dimethylamino)but-2-en-1-one]
% of OTUB1 modified: 15%

Cc1ccc(C(=O)NC2CN(C(=O)/C=C/CN(C)C)C2)s1 [XS190-9, (E)-N-(1-(4-(dimethylamino)but-2-enoyl)azetidin-3-yl)-5-methylthiophene-2-carboxamide]
% of OTUB1 modified: 38%

CN(C)C/C=C/C(=O)N1C2CCC1C(=O)N(c1cc3ccccc3s1)C2 (stereo not shown) [XS190-38, (E)-3-(benzo[b]thiophen-2-yl)-8-(4-(dimethylamino)but-2-enoyl)-3,8-diazabicyclo[3.2.1]octan-2-one]
% of OTUB1 modified: 100%

CN(C)C/C=C/C(=O)N1C2CCC1C(=O)N(c1csc3ccccc13)C2 (stereo not shown) [XS190-44, (E)-3-(benzo[b]thiophen-3-yl)-8-(4-(dimethylamino)but-2-enoyl)-3,8-diazabicyclo[3.2.1]octan-2-one]
% of OTUB1 modified: 97%

CN(C)C/C=C/C(=O)N1C2CCC1C(=O)N(c1ccc(-c3ccccc3)s1)C2 (stereo not shown) [XS190-45, (E)-8-(4-(dimethylamino)but-2-enoyl)-3-(5-phenylthiophen-2-yl)-3,8-diazabicyclo[3.2.1]octan-2-one]
% of OTUB1 modified: 90%

CN(C)C/C=C/C(=O)N1C2CC1CN(C(=O)c1cc3ccccc3s1)C2 [XS190-46, (E)-1-(3-(benzo[b]thiophene-2-carbonyl)-3,6-diazabicyclo[3.1.1]heptan-6-yl)-4-(dimethylamino)but-2-en-1-one]
% of OTUB1 modified: 90%

CN(C)C/C=C/C(=O)N1C2CC1CN(C(=O)c1csc3ccccc13)C2 [XS190-47, (E)-1-(3-(benzo[b]thiophene-3-carbonyl)-3,6-diazabicyclo[3.1.1]heptan-6-yl)-4-(dimethylamino)but-2-en-1-one]
% of OTUB1 modified: 70%

CN(C)C/C=C/C(=O)N1C2CC1CN(C(=O)c1cc3c(s1)CCCC3)C2 [XS190-48, (E)-4-(dimethylamino)-1-(3-(4,5,6,7-tetrahydrobenzo[b]thiophene-2-carbonyl)-3,6-diazabicyclo[3.1.1]heptan-6-yl)but-2-en-1-one]
% of OTUB1 modified: 90%

CN(C)C/C=C/C(=O)N1C2CC1CN(C(=O)c1csc3c1CCCC3)C2 [XS190-49, (E)-4-(dimethylamino)-1-(3-(4,5,6,7-tetrahydrobenzo[b]thiophene-3-carbonyl)-3,6-diazabicyclo[3.1.1]heptan-6-yl)but-2-en-1-one]
% of OTUB1 modified: 70%

CN(C)C/C=C/C(=O)N1C2CC1CN(C(=O)c1cc3c(s1)CCC3)C2 [XS190-50, (E)-1-(3-(5,6-dihydro-4H-cyclopenta[b]thiophene-2-carbonyl)-3,6-diazabicyclo[3.1.1]heptan-6-yl)-4-(dimethylamino)but-2-en-1-one]
% of OTUB1 modified: 92%

CC(=O)Nc1ccc2sc(C(=O)N3CC4CC(C3)N4C(=O)/C=C/CN(C)C)cc2c1 [XS190-59, (E)-N-(2-(6-(4-(dimethylamino)but-2-enoyl)-3,6-diazabicyclo[3.1.1]heptane-3-carbonyl)benzo[b]thiophen-5-yl)acetamide]
% of OTUB1 modified: 92%

CC(=O)N1CCc2sc(C(=O)N3CC4CC(C3)N4C(=O)/C=C/CN(C)C)cc2C1 [XS190-69, (E)-1-(3-(5-acetyl-4,5,6,7-tetrahydrothieno[3,2-c]pyridine-2-carbonyl)-3,6-diazabicyclo[3.1.1]heptan-6-yl)-4-(dimethylamino)but-2-en-1-one]
% of OTUB1 modified: 88%

CC(=O)N1CCc2sc(N3CC4CCC(C3=O)N4C(=O)/C=C/CN(C)C)cc2C1 (stereo not shown) [XS190-70, (E)-3-(5-acetyl-4,5,6,7-tetrahydrothieno[3,2-c]pyridin-2-yl)-8-(4-(dimethylamino)but-2-enoyl)-3,8-diazabicyclo[3.2.1]octan-2-one]
% of OTUB1 modified: 97%

Cc1ccc(C(=O)N2CC3CCC2CN3C(=O)/C=C/CN(C)C)s1 (stereo not shown) [XS190-77, (E)-4-(dimethylamino)-1-(5-(5-methylthiophene-2-carbonyl)-2,5-diazabicyclo[2.2.2]octan-2-yl)but-2-en-1-one]
% of OTUB1 modified: 7%

Cc1ccc(C(=O)N2C[C@@H]3C[C@H]2CN3C(=O)/C=C/CN(C)C)s1 [XS190-80, (E)-4-(dimethylamino)-1-((1S,4S)-5-(5-methylthiophene-2-carbonyl)-2,5-diazabicyclo[2.2.1]heptan-2-yl)but-2-en-1-one]
% of OTUB1 modified: 7%
